≈ marks a conversion by molar mass, not a printed value.
What was measured:
Torulopsis glabrata = assay: Antimycotic in vitro activity, serial dilution test, Torulopsis glabrata; type: cell-based; details: Nakaseomyces glabratus; 28-37° C., 24 to 96 hours
Protocol: (§1) The in vitro tests were carried out in the serial dilution test using inocula of microorganisms of approximately 5×10^3 to 10^4 microorganisms/ml of substrate. The nutrient medium used was (a) for dermatophytes and Blastomycetes: Sabouraud's test medium (b) for yeasts: meat extract/dextrose broth. The incubation temperature was 28° C. to 37° C., and the incubation period was 24 to 96 hours with yeasts and 96 hours with dermatophytes and Blastomycetes.

Candida albicans = assay: Antimycotic in vitro activity, serial dilution test, Candida albicans; type: cell-based; details: meat extract/dextrose broth, 28-37° C., 24 to 96 hours
Protocol: as §1

Trichophyton mentagr. = assay: Antimycotic in vitro activity, serial dilution test, Trichophyton mentagr.; type: cell-based, Trichophyton mentagrophytes; details: Sabouraud's test medium, 28-37° C., 96 hours
Protocol: as §1

Microsporum canis = assay: Antimycotic in vitro activity, serial dilution test, Microsporum canis; type: cell-based; details: Sabouraud's test medium, 28-37° C., 96 hours
Protocol: as §1

Aspergillus fumigatus = assay: Antimycotic in vitro activity, serial dilution test, Aspergillus fumigatus; type: cell-based; details: 28-37° C.
Protocol: as §1

[1] = test system: dermatophytes, Blastomycetes and yeasts; assay: Antimycotic in vitro activity, serial dilution test, overall comparison; type: cell-based
Protocol: as §1

Candida = assay: Antimycotic in vivo activity (oral) in mouse candidiasis; design: species or system mouse (SPF-CF1 type); details: for action compared with compounds (A) and (B): oral 10-100 mg/kg; for Action (survival on the 6th day post infection): oral 10-100 mg/kg one hour before and seven hours after i.v. inoculation
Protocol: Mice of the SPF-CF1 type were intravenously inoculated with 1-2×10^6 logarithmically growing Candida cells, suspended in physiological saline solution. One hour before and seven hours after the inoculation, the animals are in each case orally treated with 10-100 mg/kg of body weight of the preparation. Untreated animals died 3 to 6 days post infection. The survival rate on the 6th day post infection was about 5% in untreated control animals.

mycoses = details: compare EP-OS No.0,180,850; cited from earlier work

Compound	MIC (Torulopsis glabrata) [µg/mL]	MIC (Candida albicans) [µg/mL]	MIC (Trichophyton mentagr.) [µg/mL]	MIC (Microsporum canis) [µg/mL]	MIC (Aspergillus fumigatus) [µg/mL]	antimycotic activity compared with compounds (A) and (B) [1]	action compared with compounds (A) and (B) (Candida)	Action (survival on the 6th day post infection) (Candida)	antimycotic properties (mycoses)
OC(C=Cc1ccc(OC(F)(F)F)cc1)(Cn1cncn1)C1(Cl)CC1 (stereo not drawn) [Compound I-33]	< 1	8 (≈ 21.4 µM)	< 1	< 1	< 1	better antimycotic activity than the compounds (A) and (B)	better action than the compounds (A) and (B)	+++++ (very good action = 90% survival on the 6th day post infection)	–
OC(C=Cc1ccccc1Cl)(Cn1cncn1)C1(Cl)CC1 (stereo not drawn) [Compound I-31]	8 (≈ 24.7 µM)	8 (≈ 24.7 µM)	< 1	4 (≈ 12.3 µM)	2 (≈ 6.17 µM)	better antimycotic activity than the compounds (A) and (B)	–	–	–
CSC1(C(O)(CCc2ccc(Cl)cc2)Cn2cncn2)CC1 (stereo not drawn) [Compound I-6]	16 (≈ 47.4 µM)	4 (≈ 11.8 µM)	< 1	2 (≈ 5.92 µM)	< 1	better antimycotic activity than the compounds (A) and (B)	better action than the compounds (A) and (B)	+++ (action = 60% survival on the 6th day post infection)	–
OC(CCc1ccc(Cl)cc1Cl)(Cn1cncn1)C1(Cl)CC1 (stereo not drawn) [Compound I-22]	2 (≈ 5.55 µM)	2 (≈ 5.55 µM)	< 1	4 (≈ 11.1 µM)	< 1	better antimycotic activity than the compounds (A) and (B)	–	–	–
Cc1ccc(C=CC(O)(Cn2cncn2)C2(Cl)CC2)cc1 (stereo not drawn) [Compound I-28]	< 1	< 1	< 1	< 1	< 1	better antimycotic activity than the compounds (A) and (B)	–	–	–
CCCSC1(C(O)(/C=C/c2ccc(Cl)cc2Cl)Cn2cncn2)CC1 (stereo not drawn) [Compound I-3, trans-4-(2,4-dichlorophenyl)-2-(1-propylmercaptocyclopropyl)1-(1,2,4-triazol-1-yl)-but-3-en-2-ol]	4 (≈ 10 µM)	4 (≈ 10 µM)	8 (≈ 20.1 µM)	–	16 (≈ 40.2 µM)	better antimycotic activity than the compounds (A) and (B)	–	–	–
OC(CCc1ccccc1)(Cn1cncn1)C1(Cl)CC1 (stereo not drawn) [Compound I-23]	8 (≈ 27.4 µM)	4 (≈ 13.7 µM)	< 1	2 (≈ 6.85 µM)	< 1	better antimycotic activity than the compounds (A) and (B)	–	–	–
OC(C=CC1CCCCC1)(Cn1cncn1)C1(Cl)CC1 (stereo not drawn) [Compound I-39]	16 (≈ 54.1 µM)	16 (≈ 54.1 µM)	2 (≈ 6.76 µM)	–	2 (≈ 6.76 µM)	better antimycotic activity than the compounds (A) and (B)	–	–	–
OC(C=Cc1ccc(F)c(Br)c1)(Cn1cncn1)C1(Cl)CC1 (stereo not drawn) [Compound I-34]	4 (≈ 10.3 µM)	4 (≈ 10.3 µM)	2 (≈ 5.17 µM)	–	< 1	better antimycotic activity than the compounds (A) and (B)	better action than the compounds (A) and (B)	+++ (action = 60% survival on the 6th day post infection)	–
CCSC1(C(O)(CCc2ccc(Cl)cc2Cl)Cn2cncn2)CC1 (stereo not drawn) [Compound I-9]	16 (≈ 41.4 µM)	4 (≈ 10.4 µM)	8 (≈ 20.7 µM)	–	16 (≈ 41.4 µM)	better antimycotic activity than the compounds (A) and (B)	–	–	–
CSC1(C(O)(C=Cc2ccc(Cl)cc2)Cn2cncn2)CC1 (stereo not drawn) [Compound I-13]	2 (≈ 5.95 µM)	2 (≈ 5.95 µM)	< 1	4 (≈ 11.9 µM)	< 1	better antimycotic activity than the compounds (A) and (B)	better action than the compounds (A) and (B)	+++++ (very good action = 90% survival on the 6th day post infection)	–
OC(C=Cc1ccc(Cl)cc1Cl)(Cn1cncn1)C1(Cl)CC1 (stereo not drawn) [Compound I-29]	8 (≈ 22.3 µM)	16 (≈ 44.6 µM)	< 1	< 1	< 1	better antimycotic activity than the compounds (A) and (B)	better action than the compounds (A) and (B)	+++ (action = 60% survival on the 6th day post infection)	–
OC(CCc1ccc(F)cc1)(Cn1cncn1)C1(Cl)CC1 (stereo not drawn) [Compound I-12]	32 (≈ 103 µM)	8 (≈ 25.8 µM)	< 1	4 (≈ 12.9 µM)	< 1	better antimycotic activity than the compounds (A) and (B)	–	–	–
OC(CCc1ccc(Cl)cc1)(Cn1cncn1)C1(SCc2ccccc2)CC1 (stereo not drawn) [Compound I-10]	4 (≈ 9.66 µM)	2 (≈ 4.83 µM)	< 1	8 (≈ 19.3 µM)	64 (≈ 155 µM)	better antimycotic activity than the compounds (A) and (B)	–	–	–
OC(CCc1ccc(Cl)cc1)(Cn1cncn1)C1(Cl)CC1 (stereo not drawn) [Compound I-1, 2-(1-chlorocyclopropyl)-4-(4-chlorophenyl)-1-(1,2,4-triazol-1-yl)-butan-2-ol]	< 1	2 (≈ 6.13 µM)	< 1	< 1	< 1	better antimycotic activity than the compounds (A) and (B)	better action than the compounds (A) and (B)	+++ (action = 60% survival on the 6th day post infection)	–
CC(C)(C)C=CC(O)(Cn1cncn1)C1(Cl)CC1 (stereo not drawn) [Compound I-38]	4 (≈ 14.8 µM)	4 (≈ 14.8 µM)	< 1	4 (≈ 14.8 µM)	8 (≈ 29.7 µM)	better antimycotic activity than the compounds (A) and (B)	–	–	–
OC(Cn1cncn1)(c1ccc(Cl)cc1)C1(F)CC1 (stereo not drawn) [(A), 1-(4-chlorophenyl)-1-(1-fluoro-cycloprop-1-yl)-2-(1,2,4-triazol-1-yl)-ethan-1-ol, reference compound]	–	> 64	> 64	–	> 64	–	–	–	exhibit antimycotic properties
OC(C=Cc1ccc(Br)cc1)(Cn1cncn1)C1(Cl)CC1 (stereo not drawn) [Compound I-30]	4 (≈ 10.9 µM)	2 (≈ 5.43 µM)	< 1	< 1	< 1	better antimycotic activity than the compounds (A) and (B)	better action than the compounds (A) and (B)	+++++ (very good action = 90% survival on the 6th day post infection)	–
Cc1ccc(CCC(O)(Cn2cncn2)C2(Cl)CC2)cc1 (stereo not drawn) [Compound I-20]	2 (≈ 6.54 µM)	4 (≈ 13.1 µM)	< 1	2 (≈ 6.54 µM)	< 1	better antimycotic activity than the compounds (A) and (B)	–	–	–
CC(C)(CCC(O)(Cn1cncn1)C1(Cl)CC1)Cc1ccc(Cl)cc1 (stereo not drawn) [Compound I-17]	2 (≈ 5.23 µM)	< 1	2 (≈ 5.23 µM)	–	4 (≈ 10.5 µM)	better antimycotic activity than the compounds (A) and (B)	–	–	–
OC(C=Cc1ccccc1)(Cn1cncn1)C1(Cl)CC1 (stereo not drawn) [Compound I-32]	8 (≈ 27.6 µM)	4 (≈ 13.8 µM)	< 1	4 (≈ 13.8 µM)	2 (≈ 6.9 µM)	better antimycotic activity than the compounds (A) and (B)	–	–	–
CC(C)SC1(C(O)(CCc2ccc(Cl)cc2)Cn2cncn2)CC1 (stereo not drawn) [Compound I-8]	32 (≈ 87.4 µM)	8 (≈ 21.9 µM)	2 (≈ 5.47 µM)	–	4 (≈ 10.9 µM)	better antimycotic activity than the compounds (A) and (B)	–	–	–
OC(CCc1ccccc1Cl)(Cn1cncn1)C1(Cl)CC1 (stereo not drawn) [Compound I-19]	16 (≈ 49 µM)	4 (≈ 12.3 µM)	< 1	2 (≈ 6.13 µM)	2 (≈ 6.13 µM)	better antimycotic activity than the compounds (A) and (B)	–	–	–
CCSC1(C(O)(C=Cc2ccc(Cl)cc2Cl)Cn2cncn2)CC1 (stereo not drawn) [Compound I-16]	< 1	8 (≈ 20.8 µM)	< 1	< 1	4 (≈ 10.4 µM)	better antimycotic activity than the compounds (A) and (B)	–	–	–
OC(CCc1ccc(OC(F)(F)F)cc1)(Cn1cncn1)C1(Cl)CC1 (stereo not drawn) [Compound I-24]	4 (≈ 10.6 µM)	16 (≈ 42.6 µM)	< 1	4 (≈ 10.6 µM)	< 1	better antimycotic activity than the compounds (A) and (B)	–	–	–
OC(CCc1ccc(-c2ccccc2)cc1)(Cn1cncn1)C1(Cl)CC1 (stereo not drawn) [Compound I-25]	2 (≈ 5.44 µM)	< 1	< 1	2 (≈ 5.44 µM)	< 1	better antimycotic activity than the compounds (A) and (B)	–	–	–

Source: US4925865A, “Antimycotic agents” (Bayer Aktiengesellschaft, priority 1987, dated 1990)
